The source of these data is patent US8530648B2, “Diaza-spiro[5.5]undecanes” (Novartis AG, priority 2009, dated 2013).

A value given as a limit tells only on which side of the number the result lay.

Assay [1] concerns the target T1, hOx1R (Homo sapiens (Human), UniProt O43613). Put plainly: Radioligand binding assay, [3H]-SB649868, hOx1R. The settings on record: radioligand [3H]-SB649868, competition. As for the experimental part: (§1) For crude cell membrane preparations, cells (CHO, Chinese hamster ovary or HEK, human embryonic kidney) expressing human orexin 1 or human orexin 2 receptors, were washed with HEPES (10 mM, pH 7.5), scraped off the culture plates with the same buffer, and centrifuged at 4° C. for 5 min at 2500×g. The cell pellet was either stored at −80° C. or used directly. Before the experiments, cell membranes were re-suspended in binding assay buffer (10 mM HEPES, 0.5% (w/v) bovine serum albumin, pH 7.5) by homogenisation with a Polytron homogeniser at 50 Hz for 20 s. Cell membranes were also used as made available by commercial providers.
(§2) Bound radioactivity was measured, and data were analysed with the program XLFIT or Graphpad Prism. Protein concentration was determined according to the Bradford/BioRad Protein Assay Kit.
(§3) In competition experiments, cell homogenates (150 μl) were incubated in assay buffer (10 mM HEPES, pH 7.5, 0.5% (w/v) bovine serum albumin, 5 mM MgCl2, 1 mM CaCl2, and tween 0.05%) for 1 h at room temperature with about 1 nM of the radioligand [^3H]-SB649868, 66 Ci/mmole, 50 μl), and with various concentrations of compounds of the invention (50 μl) in triplicates; non-specific binding was determined in the presence of almorexant (10 μM).

In assay [2] the target is T2, hOx2R (Homo sapiens (Human), UniProt O43614). The experiment in a line: Radioligand binding assay, [3H]-SB649868, hOx2R. The settings on record: radioligand [3H]-SB649868, competition. On the procedure:
as §1, §2, §3

Assay [3] has as its target T2, hOx2R. The experiment in a line: Calcium accumulation in cells (FLIPR), hOx2R. The settings on record: for Ki: inhibition of orexin A induced calcium accumulation, Cheng and Prusoff correction; for inhibition at 10 µM: measured at a concentration of 10 μM of compound. Format: cell-based. In a few lines:
(§4)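 Cells expressing human orexin 1 or 2 receptor, serum-deprived overnight, loaded with Fluo-4-AM (2 μM) plus 0.1 mM probenecid, pH 7.4 HEPES buffer with 1% BSA.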

For assay [4], the target named is T1, hOx1R. Put plainly: Calcium accumulation in cells (FLIPR), hOx1R. Format: cell-based. The settings on record: for Ki: inhibition of orexin A induced calcium accumulation, Cheng and Prusoff correction; for inhibition at 10 µM: measured at a concentration of 10 μM of compound. In a few lines:
as §4

T1 sequence (O43613 whole entry): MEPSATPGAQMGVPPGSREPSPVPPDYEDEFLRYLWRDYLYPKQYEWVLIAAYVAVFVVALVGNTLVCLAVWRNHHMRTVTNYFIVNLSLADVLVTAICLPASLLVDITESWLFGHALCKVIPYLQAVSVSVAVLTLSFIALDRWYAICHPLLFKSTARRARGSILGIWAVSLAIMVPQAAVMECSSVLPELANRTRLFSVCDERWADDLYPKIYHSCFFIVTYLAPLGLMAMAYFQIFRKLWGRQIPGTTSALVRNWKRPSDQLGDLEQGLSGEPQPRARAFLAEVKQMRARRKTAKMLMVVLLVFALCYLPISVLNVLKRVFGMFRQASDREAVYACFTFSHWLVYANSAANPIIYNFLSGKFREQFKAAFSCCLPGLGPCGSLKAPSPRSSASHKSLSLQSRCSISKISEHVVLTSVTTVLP
T2 sequence (O43614 whole entry): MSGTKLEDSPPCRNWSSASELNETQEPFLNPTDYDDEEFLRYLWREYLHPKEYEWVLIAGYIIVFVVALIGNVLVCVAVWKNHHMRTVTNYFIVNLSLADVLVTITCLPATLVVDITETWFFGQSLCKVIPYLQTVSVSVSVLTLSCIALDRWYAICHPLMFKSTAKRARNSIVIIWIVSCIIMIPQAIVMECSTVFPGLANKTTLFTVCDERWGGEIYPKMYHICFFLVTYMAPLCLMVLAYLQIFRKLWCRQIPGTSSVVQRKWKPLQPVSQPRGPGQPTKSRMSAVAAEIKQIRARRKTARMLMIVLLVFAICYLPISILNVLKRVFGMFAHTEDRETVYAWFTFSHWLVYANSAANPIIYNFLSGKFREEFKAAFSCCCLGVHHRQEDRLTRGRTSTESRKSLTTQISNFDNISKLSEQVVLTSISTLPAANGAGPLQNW

With `Cc1noc(-c2ccccc2CN2CCCC3(CCN(c4cnc5ccccc5n4)CC3)C2=O)n1` [Example 39, 2-(2-(3-methyl-1,2,4-oxadiazol-5-yl)benzyl)-9-(quinoxalin-2-yl)-2,9-diazaspiro[5.5]undecan-1-one], the dissociation constant (Kd) is 2770 nM at hOx1R [1] and 243 nM on hOx2R [2]. Moreover, the inhibition constant Ki at hOx2R [3] came out at 25 nM; on hOx1R [4], 1420 nM.

As for `O=C1CCCC2(CCN(c3cnc4ccccc4n3)CC2)N1Cc1c[nH]c2ccccc12` [Example 43, 1-((1H-indol-3-yl)methyl)-9-(quinoxalin-2-yl)-1,9-diazaspiro[5.5]undecan-2-one], the Kd came to 205 nM at hOx1R [1] and 196 nM on hOx2R [2]. Besides, the Ki at hOx2R [3] stood at 47 nM; at hOx1R [4] it was 236 nM.

On to `Cn1ccc2c(CN3C(=O)CCCC34CCN(c3cnc5ccccc5n3)CC4)cccc21` [Example 44, 1-((1-methyl-1H-indol-4-yl)methyl)-9-(quinoxalin-2-yl)-1,9-diazaspiro[5.5]undecan-2-one], for which the Kd at hOx1R [1] was 56 nM; on hOx2R [2] it was 125 nM. The figures for the Ki on hOx2R [3] and on hOx1R [4] were 48 nM and 64 nM, respectively.

As to `O=C1N(Cc2cccc(-n3ccnn3)c2)CCCC12CCN(c1cnc3ccccc3n1)CC2` [Example 46, 2-(3-(1H-1,2,3-triazol-1-yl)benzyl)-9-(quinoxalin-2-yl)-2,9-diazaspiro[5.5]undecan-1-one], the Kd on hOx1R [1] turned out to be 1290 nM; on hOx2R [2], 473 nM. The Ki at hOx2R [3] is 247 nM; at hOx1R [4] it was 1100 nM.

With `O=C1N(Cc2cccc(-n3nccn3)c2)CCCC12CCN(c1cnc3ccccc3n1)CC2` [Example 47, 2-(3-(2H-1,2,3-triazol-2-yl)benzyl)-9-(quinoxalin-2-yl)-2,9-diazaspiro[5.5]undecan-1-one], the results for the Kd on hOx1R [1] and at hOx2R [2] were 318 nM and 34 nM, respectively. Further, the results for the inhibition constant (Ki) on hOx2R [3] and on hOx1R [4] were 13 nM and 159 nM, respectively.

In the case of `O=C1N(Cc2c[nH]c3ccccc23)CCCC12CCN(c1cnc3ccccc3c1)CC2` [Example 48, 2-((1H-indol-3-yl)methyl)-9-(quinolin-3-yl)-2,9-diazaspiro[5.5]undecan-1-one], the Kd on hOx1R [1] worked out at 1840 nM; at hOx2R [2], 147 nM. For the same compound, the Ki was found to be 32 nM on hOx2R [3] and 1040 nM at hOx1R [4].

For the compound `O=C1N(Cc2ccccc2-n2nccn2)CCCC12CCN(c1cnc3ccccc3n1)CC2` [Example 49, 2-(2-(2H-1,2,3-triazol-2-yl)benzyl)-9-(quinoxalin-2-yl)-2,9-diazaspiro[5.5]undecan-1-one], the Kd at hOx1R [1] turned out to be 3260 nM; at hOx2R [2] it was 115 nM. Moreover, the Ki was found to be 39 nM at hOx2R [3] and 2110 nM at hOx1R [4].

As to `O=C1N(Cc2cccc(-n3cccn3)c2)CCCC12CCN(c1cnc3ccccc3n1)CC2` [Example 60, 2-(3-(1H-pyrazol-1-yl)benzyl)-9-(quinoxalin-2-yl)-2,9-diazaspiro[5.5]undecan-1-one], the Kd on hOx1R [1] stood at 728 nM; at hOx2R [2], 191 nM. For the same compound, the Ki at hOx2R [3] turned out to be 49 nM; at hOx1R [4], 391 nM.

Regarding `O=C1N(Cc2cccc(-c3ncccn3)c2)CCCC12CCN(c1cnc3ccccc3n1)CC2` [Example 61, 2-(3-(pyrimidin-2-yl)benzyl)-9-(quinoxalin-2-yl)-2,9-diazaspiro[5.5]undecan-1-one], the Kd at hOx1R [1] turned out to be 2050 nM; at hOx2R [2], 395 nM. For the same compound, the Ki is 62 nM at hOx2R [3] and 373 nM on hOx1R [4].

As to `O=C1N(Cc2ccnc(-n3cccn3)c2)CCCC12CCN(c1cnc3ccccc3n1)CC2` [Example 63, 2-((2-(1H-pyrazol-1-yl)pyridin-4-yl)methyl)-9-(quinoxalin-2-yl)-2,9-diazaspiro[5.5]undecan-1-one], the figures for the Kd on hOx1R [1] and at hOx2R [2] were 3820 nM and 903 nM, respectively. The inhibition constant Ki on hOx2R [3] was 83 nM; on hOx1R [4], 900 nM.

Turning to `O=C1N(Cc2cccc(-c3cnccn3)c2)CCCC12CCN(c1cnc3ccccc3n1)CC2` [Example 65, 2-(3-(pyrazin-2-yl)benzyl)-9-(quinoxalin-2-yl)-2,9-diazaspiro[5.5]undecan-1-one], the Kd was 1860 nM at hOx1R [1] and 623 nM on hOx2R [2]. Besides, the Ki on hOx2R [3] is 23 nM; on hOx1R [4], 357 nM.

As for `Cc1nc(CN2CCCC3(CCN(c4cnc5ccccc5n4)CC3)C2=O)c(-c2cccc(F)c2)s1` [Example 73, 2-((5-(3-fluorophenyl)-2-methylthiazol-4-yl)methyl)-9-(quinoxalin-2-yl)-2,9-diazaspiro[5.5]undecan-1-one], the Kd at hOx1R [1] was determined as 1150 nM; on hOx2R [2] it was 219 nM. Moreover, the Ki was 55 nM on hOx2R [3] and 438 nM on hOx1R [4].

For the compound `O=C1N(Cc2cccc3nonc23)CCCC12CCN(c1cnc3ccccc3n1)CC2` [Example 77, 2-(benzo[c][1,2,5]oxadiazol-4-ylmethyl)-9-(quinoxalin-2-yl)-2,9-diazaspiro[5.5]undecan-1-one], the Kd at hOx1R [1] was found to be 2330 nM; at hOx2R [2] it was 1460 nM. Also, the inhibition constant (Ki) on hOx2R [3] was found to be 98 nM; on hOx1R [4] it was 1150 nM.

With `Cc1noc(-c2cccc(CN3CCCC4(CCN(c5cnc6ccccc6n5)CC4)C3=O)c2)n1` [Example 104, 2-(3-(3-methyl-1,2,4-oxadiazol-5-yl)benzyl)-9-(quinoxalin-2-yl)-2,9-diazaspiro[5.5]undecan-1-one], binding on hOx2R [2] was put at a Kd of 1370 nM. Besides, the Ki at hOx2R [3] was 106 nM.

Regarding `COc1ccc2[nH]c(N3CCC4(CCCN(Cc5c[nH]c6ccccc56)C4=O)CC3)nc2c1` [Example 159, 2-((1H-indol-3-yl)methyl)-9-(5-methoxy-1H-benzo[d]imidazol-2-yl)-2,9-diazaspiro[5.5]undecan-1-one], the inhibitory constant (Ki) at hOx2R [3] was 745 nM. Moreover, on hOx1R [4], the inhibition at 10 µM came out at 24%.

`O=C1N(Cc2c[nH]c3ccccc23)CCCC12CCN(c1ccc(-c3nccs3)cn1)CC2` [Example 161, 2-((1H-indol-3-yl)methyl)-9-(5-(thiazol-2-yl)pyridin-2-yl)-2,9-diazaspiro[5.5]undecan-1-one]: on hOx2R [3], the Ki was 713 nM. In addition, the inhibition at 10 µM at hOx1R [4] turned out to be 40%.

In the case of `Cc1ccc2[nH]c(N3CCC4(CCCN(Cc5c[nH]c6ccccc56)C4=O)CC3)nc2c1` [Example 163, 2-((1H-indol-3-yl)methyl)-9-(5-methyl-1H-benzo[d]imidazol-2-yl)-2,9-diazaspiro[5.5]undecan-1-one], the Ki on hOx2R [3] came out at 483 nM. In addition, the inhibition at 10 µM on hOx1R [4] was 23%.

Turning to `O=C1N(Cc2c[nH]c3ccccc23)CCCC12CCN(c1cc(-c3ccccc3)ncn1)CC2` [Example 165, 2-((1H-indol-3-yl)methyl)-9-(6-phenylpyrimidin-4-yl)-2,9-diazaspiro[5.5]undecan-1-one], the inhibitory constant (Ki) on hOx2R [3] was 115 nM; on hOx1R [4], 468 nM.

For `O=C1N(Cc2c[nH]c3ccccc23)CCCC12CCN(c1nccc(-c3ccncc3)n1)CC2` [Example 166, 2-((1H-indol-3-yl)methyl)-9-(4-(pyridin-4-yl)pyrimidin-2-yl)-2,9-diazaspiro[5.5]undecan-1-one], the results for the inhibition constant Ki at hOx2R [3] and on hOx1R [4] were 156 nM and 1160 nM, respectively.

With `Cc1nc2ccccc2nc1N1CCC2(CCCN(Cc3c[nH]c4ccccc34)C2=O)CC1` [Example 170, 2-((1H-indol-3-yl)methyl)-9-(3-methylquinoxalin-2-yl)-2,9-diazaspiro[5.5]undecan-1-one], the values for the Ki on hOx2R [3] and on hOx1R [4] were 535 nM and 1810 nM, respectively.

For `O=C1N(Cc2c[nH]c3ccccc23)CCCC12CCN(c1nnc(-c3ccccc3)s1)CC2` [Example 171, 2-((1H-indol-3-yl)methyl)-9-(5-phenyl-1,3,4-thiadiazol-2-yl)-2,9-diazaspiro[5.5]undecan-1-one], the inhibitory constant (Ki) at hOx2R [3] was found to be 786 nM; on hOx1R [4], 2480 nM.

With `O=C1N(Cc2c[nH]c3ccccc23)CCCC12CCN(c1nc(-c3ccc(F)cc3)cs1)CC2` [Example 172, 2-((1H-indol-3-yl)methyl)-9-(4-(4-fluorophenyl)thiazol-2-yl)-2,9-diazaspiro[5.5]undecan-1-one], the inhibition at 10 µM on hOx2R [3] amounted to 20%; on hOx1R [4] it was 14%.

Turning to `Cc1nn(-c2ccccc2)nc1CN1CCCC2(CCN(c3cnc4ccccc4n3)CC2)C1=O` [Example 175, 2-((5-methyl-2-phenyl-2H-1,2,3-triazol-4-yl)methyl)-9-(quinoxalin-2-yl)-2,9-diazaspiro[5.5]undecan-1-one], the inhibition at 10 µM at hOx2R [3] is 12%; on hOx1R [4], under 10%.

As to `CC(C)c1nc(CN2CCCC3(CCN(c4cnc5ccccc5n4)CC3)C2=O)co1` [Example 176, 2-((2-isopropyloxazol-4-yl)methyl)-9-(quinoxalin-2-yl)-2,9-diazaspiro[5.5]undecan-1-one], the inhibition at 10 µM on hOx2R [3] and on hOx1R [4] was under 10% in each case.
